Reference: patent publication US20240392241A1, “METHOD FOR PRODUCING CELL MASS INCLUDING PITUITARY TISSUE AND CELL MASS” (SUMITOMO CHEMICAL COMPANY, LIMITED, priority 2021, published 2024)

How the values were obtained:
[1] = system: human iPS cells (1231A3 strain); test: Timing of JNK inhibitor addition in pituitary organoid differentiation, bright field observation (Example 2); type: cell-based; conditions: observed day 28
Protocol: In Example 2, according to step shown in FIG. 2A, a cell population including cells that constitute pituitary tissue was produced. Specifically, human iPS cells (1231A3 strain, obtained from RIKEN) were cultured under feeder-free conditions according to the method described in Scientific Reports, 4, 3594 (2014). As the feeder-free medium, StemFit medium was used and, as the feeder-free scaffold, Laminin 511-E8 was used.
Differentiation induction was performed under the same conditions as in Example 1 except for the condition of adding a JNK inhibitor, compared to the conditions of Example 1. As the condition for adding JNK inhibitor, conditions including addition of JNK—IN-8 (manufactured by Merck, 1 μM), which is a c-Jun N-terminal kinase (JNK) inhibitor, on days 0, 2, 6, 10, and 13 after the start of differentiation induction were compared with conditions without addition of JNK inhibitor. When the JNK inhibitor is added on days 2, 6, 10, and 13 after the start of differentiation induction, 2 μM was added to the medium when adding or replacing the medium, so that the final concentration in the well would be 1 μM.
On day 28 after the start of suspension culture, bright field observation by polarized illumination was performed using an inverted microscope (manufactured by KEYENCE CORPORATION, BIOREVO BZ-X800) (FIG. 2B).

[2] = system: cell mass derived from human iPS cell line 201B7; test: ACTH concentration in culture medium of cell masses by ELISA (Example 4); type: cell-based; conditions: for ACTH concentration in the medium compared with JNK inhibitor non-addition conditions: 1 μM from day 0; for ACTH concentration in the medium vs non-addition condition: 3 μM
Protocol: In Example 4, according to step shown in FIG. 4A, a cell population including cells that constitute pituitary tissue was produced. Specifically, the culture supernatant of a cell mass derived from human iPS cell line 201B7 prepared by the method described in Example 3 was collected over time, and the amount of ACTH secreted per cell mass was measured. As a specific measurement method, cell masses containing pituitary tissue were prepared under four conditions: from day 0 to day 30 of differentiation induction, conditions in which the JNK inhibitor JNK—IN-8 was added at 1 μM, 3 μM, or 10 μM, and no addition control. […] Thereafter, the cell masses prepared by adding 1 μM or 3 μM of JNK—IN-8 and the non-addition control were suspension cultured in a 10 cm dish with 20 ml of medium, and half of the medium was replaced every 3 to 4 days. The culture supernatant was collected before replacement of a half-volume of the medium on days 61, 103, 152, and 201 of differentiation induction, and frozen at −150° C. When all samples were collected, the ACTH concentration in the recovered medium was measured by the ELISA method used in clinical testing (testing outsourced to SRL, Ltd.). Based on the obtained ACTH concentration data (pg/mL), the total number of cell masses at the time of sampling and the total amount of culture medium were corrected to the ACTH concentration under the conditions where 20 cell masses were cultured in 20 ml of medium, and shown in a graph. A similar experiment was performed twice.
As a result, the ACTH concentration in the medium was about 5 times as high on day 61 of differentiation induction, about 2 times as high on days 103 and 152 of differentiation induction, and about 1.3 times as high on day 201 of differentiation induction under the conditions in which 1 μM JNK—IN-8 was added from day 0 of differentiation induction, compared with the JNK inhibitor non-addition conditions. Under the conditions in which 3 μM JNK—IN-8 was added, the ACTH concentration in the medium was higher on days 61 and 103 of differentiation induction than that in the non-addition condition, but lower on days 152 and 201 of differentiation induction than that in the non-addition condition. From the above results, it was shown that the addition of a JNK inhibitor improves the ACTH secretory capacity per cell mass in differentiation induction of pituitary tissue from pluripotent stem cells, and that the concentration of the JNK inhibitor to be added is preferably not more than 3 μM (FIG. 4B).

Structure (SMILES): Cc1cc(NC(=O)c2cccc(NC(=O)/C=C/CN(C)C)c2)ccc1Nc1nccc(-c2cccnc2)n1 [JNK—IN-8, (E)-3-(4-(dimethylamino)but-2-enamido)-N-(3-methyl-4-((4-(pyridin-3-yl)pyrimidin-2-yl)amino)phenyl)benzamide]
- formation of nonneural epithelium/pituitary vs no addition ([1]; JNK—IN-8 1 μM added on days 0, 2, and 6 after start of differentiation induction): formed more efficiently
- formation of nonneural epithelium/pituitary vs no addition ([1]; JNK—IN-8 1 μM added on days 10 and 13 after start of differentiation): no difference
- ACTH concentration in the medium compared with JNK inhibitor non-addition conditions ([2]; day 61 of differentiation induction): about 5 times
- ACTH concentration in the medium compared with JNK inhibitor non-addition conditions ([2]; day 201 of differentiation induction): about 1.3 times
- ACTH concentration in the medium compared with JNK inhibitor non-addition conditions ([2]; days 103 and 152 of differentiation induction): about 2 times
- ACTH concentration in the medium vs non-addition condition ([2]; days 61 and 103 of differentiation induction): higher
- ACTH concentration in the medium vs non-addition condition ([2]; days 152 and 201 of differentiation induction): lower
- state of cell mass ([2]; 10 μM added from day 0 to day 30 of differentiation induction): collapse of cell mass
